According to patent US20030225007A1, “Sulfonamide derivatives of 3-substituted imidazol[1,2-d]-1,2,4-thiadiazoles and 3-substituted-[1,2,4] thiadiazolo[4,5-a] benzimidazole as inhibitors of fibrin cross-linking and transglutaminases” (Apotex Inc., priority 2002, published 2003):

System: fibrin cross-linking in human plasma clots
Assay: Inhibition of fibrin cross-linking in plasma clots (125I-fibrinogen, SDS-PAGE)
Assay type: biochemical
Settings: platelet-depleted and platelet-rich human plasma clots; inactivator at 40, 80 and 160 μM, added before thrombin and CaCl2
Procedure: Citrated human plasma (0.3 mL) containing 2-4 μg/mL of ^125I-labeled fibrinogen (specific activity approx. 200 μCi/mg, at least 85% clotability, Amersham Pharmacia Biotech UK Ltd.) was clotted by the addition of CaCl2 (6.4 μL) to a final concentration of 50 mM and thrombin (6.2 μL) to a final concentration of 5 units/mL. Solutions of Factor XIIIa inactivators in DMSO were added just prior to the addition of thrombin and CaCl2. In some cases the inactivator was dissolved and added to plasma in water. To these samples, DMSO (3.2 μL) was added, to make 1% final concentration. Conversely, water (3.2 μL) was added to clots to which inactivator was added in DMSO. In control samples both DMSO (3.2 μL) and water (3.2 μL) were added in place of the inactivator solution. Typically, only 20 μL of the mixture was withdrawn before clotting (the remainder of the solution was used for the fibrinolysis assay) and incubated at 37° C. for 30 min.
100 μL of 9 M urea containing 40 mM DTT was added and the solutions were incubated at 37° C. until the clots were completely dissolved. The samples were analyzed on SDS-PAGE gels using a standard procedure. The amount of radioactivity in each electrophoretic band was quantitated using a Storm 820 (Molecular Dynamics) autoradiography system after exposing the gel to a Kodak Storage Phosphor Screen. […]

O=C(O)CN(CCCCCCNS(=O)(=O)c1ccccc1[N+](=O)[O-])c1nsc2nccn12 [H / CH2CO2H / 2-NO2-Ph, N-imidazo[1,2-d][1,2,4]thiadiazol-3-yl-N-(6-{[(2-nitrophenyl)sulfonyl]amino}hexyl)glycine]
formation of high molecular weight polymer in plasma clots: inhibits the formation of high molecular weight polymer
